Reference: ChEMBL document CHEMBL5647692, “The novel dual PI3K/mTOR inhibitor NVP-BGT226 displays cytotoxic activity in both normoxic and hypoxic hepatocarcinoma cells” (Oncotarget, 2015)
The source made the active and inactive calls. The calls are words filed in the database; no cut-off is given here.

Legend:
[1] = tested on: HepG2; assay: Cytotoxicity against human HepG2 cells assessed as reduction in cell viability at 0.5 to 5 uM incubated for 24 hrs by MTT assay; type: functional, cell-based; settings: dose 0.5-5 µM
[2] = tested on: Hep 3B2; assay: Induction of cell cycle arrest in human Hep3B cells assessed as decrease in accumulation of cells in S phase incubated at 0.01 to 0.1 uM for 24 hrs by propidium iodide staining based muse cell analysis; type: functional; settings: dose 0.01-0.1 µM
[3] = tested on: Hep 3B2; assay: Induction of apoptosis in human Hep3B cells assessed as cleaved Caspase 9 level at 0.5 uM incubated for 24 hrs by Western blotting analysis; type: functional, cell-based
[4] = tested on: Mahlavu; assay: Induction of apoptosis in human Mahlavu cells assessed as late apoptotic cells at 0.66 uM incubated for 24 hrs by Annexin-V/7-AAD staining based muse cell analyzer method (reference value: 2.24 %); type: functional
[5] = tested on: SNU-475; assay: Induction of autophagy in human SNU-475 cells assessed as reduction in cytotoxicity at 0.5 uM incubated for 24 hrs by MTT assay; type: functional, cell-based
[6] = tested on: Mahlavu; assay: Cytotoxicity against human Mahlavu cells assessed as reduction in cell viability at 0.5 uM incubated for 24 hrs in presence of chloroquine by MTT assay; type: functional, cell-based
[7] = Inhibition of PI3K/Akt/mTOR signaling pathway in human SNU-475 cells assessed as reduction in phosphorylation of mTORC1 substrate S6 incubated for 1 hr under normoxia condition by Western blotting analysis; type: cell-based; settings: dose 0.25-1 µM
[8] = tested on: SNU-475; assay: Cytotoxicity against human SNU-475 cells assessed as reduction in cell viability incubated for 24 hrs under hypoxia condition by MTT assay; type: functional, cell-based
[9] = tested on: Mahlavu; assay: Induction of autophagy in human Mahlavu cells assessed as increase in LC3I to LC3II conversion at 0.5 uM incubated for 24 hrs under hypoxia condition by Western blot analysis; type: functional, cell-based
[10] = tested on: Mahlavu; assay: Induction of autophagy in human Mahlavu cells assessed as increased expression of LC3 A/B II at 0.5 uM incubated for 24 hrs in presence of chloroquine under hypoxia condition by Western blot analysis; type: functional, cell-based
[11] = tested on: Mahlavu; assay: Cytotoxicity against human Mahlavu cells assessed as reduction in cell viability at 0.5 uM incubated for 24 hrs in presence of chloroquine under hypoxia condition by MTT assay; type: functional, cell-based
[12] = tested on: Mahlavu; assay: Anti-tumor activity against human Mahlavu cells assessed as reduction of VEGF level incubated for 24 hrs under hypoxia condition by Western blot analysis; type: functional, cell-based; settings: dose 0.01-0.1 µM

COc1ccc(-c2ccc3ncc4c(c3c2)n(-c2ccc(N3CCNCC3)c(C(F)(F)F)c2)c(=O)n4C)cn1 [BGT-226 FREE BASE]
Activity [1]: Active
Activity [2]: Active
Activity [3]: Active
Activity [4]: 1.99%
Activity [5]: Active
Activity [6]: Active
inhibition [7]: Dose-Dependent Effect
Activity [8]: Active
Activity [9]: Dose-Dependent Effect
Activity [10]: Active
Activity [11]: Active
Activity [12]: Dose-Dependent Effect
